Laboratory results reported in patent publication US20160158317A1, “Antimicrobial Peptide Variants and Polynucleotides Encoding Same” (Adenium Biotech A/S, priority 2010, published 2016).
Where a SMILES comes first, the peptide text is derived from it. Bridges are numbered along the chain shown (N, C = ends).

Assay: Determination of the protein binding (90% serum, 30 kDa filter, HPLC)
Format: in vitro ADME
Settings: serum
Method: Protein binding assays were performed as follows. The purified peptides were mixed with 90% serum and centrifuged through a 30 kDa filter. The ultra-filtrate and the non filtrated serum samples were quantified by HPLC measurements and the protein binding was subsequently calculated.

Row | SMILES | fraction unbound
1 | CC(C)[C@@H]1NC(=O)CNC(=O)[C@H](CC(N)=O)NC(=O)[C@H](CCCNC(=N)N)NC(=O)[C@H](CCCNC(=N)N)NC(=O)[C@H](C(C)C)NC(=O)[C@@H]2CSSC[C@H](NC(=O)[C@H](C(C)C)NC(=O)[C@H](CCCNC(=N)N)NC1=O)C(=O)N[C@@H](Cc1ccc(O)cc1)C(=O)N[C@@H](CCCNC(=N)N)C(=O)N[C@@H](CCCNC(=N)N)C(=O)N[C@H](C(=O)N[C@@H](CC(N)=O)C(=O)O)CSSC[C@H](NC(=O)[C@H](Cc1ccccc1)NC(=O)CN)C(=O)N[C@@H](Cc1c[nH]c3ccccc13)C(=O)N[C@@H](Cc1ccc(O)cc1)C(=O)N[C@@H](C(C)C)C(=O)N2 [compound 28] (H-GFCWYVCVRRNGVRVCYRRCN-OH; disulfide 3-20, 7-16 (inferred); N-terminus and C-terminus assumed) | 0.08
2 | CC(C)[C@@H]1NC(=O)[C@H](CCCNC(=N)N)NC(=O)[C@H](C)NC(=O)CNC(=O)[C@H](CC(N)=O)NC(=O)[C@H](CCCNC(=N)N)NC(=O)[C@H](Cc2ccc(O)cc2)NC(=O)[C@H](C(C)C)NC(=O)[C@@H]2CSSC[C@H](NC1=O)C(=O)N[C@@H](Cc1ccc(O)cc1)C(=O)N[C@@H](CCCNC(=N)N)C(=O)N[C@@H](CCCNC(=N)N)C(=O)N[C@H](C(=O)N[C@@H](CC(N)=O)C(=O)O)CSSC[C@H](NC(=O)[C@H](Cc1ccccc1)NC(=O)CN)C(=O)N[C@@H](Cc1c[nH]c3ccccc13)C(=O)N[C@@H](Cc1ccc(O)cc1)C(=O)N[C@@H](C(C)C)C(=O)N2 [compound 29] (H-GFCWYVCVYRNGARVCYRRCN-OH; disulfide 3-20, 7-16 (inferred); N-terminus and C-terminus assumed) | 0.01
3 | CC(C)[C@@H]1NC(=O)[C@H](CCCNC(=N)N)NC(=O)CNC(=O)CNC(=O)[C@H](CC(N)=O)NC(=O)[C@H](CCCNC(=N)N)NC(=O)[C@H](Cc2ccc(O)cc2)NC(=O)[C@H](C(C)C)NC(=O)[C@@H]2CSSC[C@H](NC1=O)C(=O)N[C@@H](Cc1ccc(O)cc1)C(=O)N[C@@H](CCCNC(=N)N)C(=O)N[C@@H](CCCNC(=N)N)C(=O)N[C@H](C(=O)N[C@@H](CC(N)=O)C(=O)O)CSSC[C@H](NC(=O)[C@H](Cc1ccccc1)NC(=O)CN)C(=O)N[C@@H](Cc1c[nH]c3ccccc13)C(=O)N[C@@H](Cc1ccc(O)cc1)C(=O)N[C@@H](C(C)C)C(=O)N2 [compound 30] (H-GFCWYVCVYRNGGRVCYRRCN-OH; disulfide 3-20, 7-16 (inferred); N-terminus and C-terminus assumed) | 0.01
4 | CC(C)[C@@H]1NC(=O)[C@@H]2CSSC[C@H](NC(=O)[C@H](C(C)C)NC(=O)[C@H](CCCNC(=N)N)NC(=O)[C@@H]3CCCN3C(=O)CNC(=O)[C@H](CC(N)=O)NC(=O)[C@H](CCCNC(=N)N)NC(=O)[C@H](Cc3ccc(O)cc3)NC1=O)C(=O)N[C@@H](Cc1ccc(O)cc1)C(=O)N[C@@H](CCCNC(=N)N)C(=O)N[C@@H](CCCNC(=N)N)C(=O)N[C@H](C(=O)N[C@@H](CC(N)=O)C(=O)O)CSSC[C@H](NC(=O)[C@H](Cc1ccccc1)NC(=O)CN)C(=O)N[C@@H](Cc1c[nH]c3ccccc13)C(=O)N[C@@H](Cc1ccc(O)cc1)C(=O)N[C@@H](C(C)C)C(=O)N2 [compound 33] (H-GFCWYVCVYRNGPRVCYRRCN-OH; disulfide 3-20, 7-16 (inferred); N-terminus and C-terminus assumed) | 0.01
5 | CC(C)[C@@H]1NC(=O)[C@H](CCCNC(=N)N)NC(=O)[C@H](CO)NC(=O)CNC(=O)[C@H](CC(N)=O)NC(=O)[C@H](CCCNC(=N)N)NC(=O)[C@H](Cc2ccc(O)cc2)NC(=O)[C@H](C(C)C)NC(=O)[C@@H]2CSSC[C@H](NC1=O)C(=O)N[C@@H](Cc1ccc(O)cc1)C(=O)N[C@@H](CCCNC(=N)N)C(=O)N[C@@H](CCCNC(=N)N)C(=O)N[C@H](C(=O)N[C@@H](CC(N)=O)C(=O)O)CSSC[C@H](NC(=O)[C@H](Cc1ccccc1)NC(=O)CN)C(=O)N[C@@H](Cc1c[nH]c3ccccc13)C(=O)N[C@@H](Cc1ccc(O)cc1)C(=O)N[C@@H](C(C)C)C(=O)N2 [compound 36] (H-GFCWYVCVYRNGSRVCYRRCN-OH; disulfide 3-20, 7-16 (inferred); N-terminus and C-terminus assumed) | 0.4
6 | CC(C)[C@@H]1NC(=O)CNC(=O)[C@H](CC(N)=O)NC(=O)[C@H](CCCNC(=N)N)NC(=O)[C@H](Cc2ccc(O)cc2)NC(=O)[C@H](C(C)C)NC(=O)[C@@H]2CSSC[C@H](NC(=O)CNC(=O)[C@H](CCCNC(=N)N)NC1=O)C(=O)N[C@@H](Cc1ccc(O)cc1)C(=O)N[C@@H](CCCNC(=N)N)C(=O)N[C@@H](CCCNC(=N)N)C(=O)N[C@H](C(=O)N[C@@H](CC(N)=O)C(=O)O)CSSC[C@H](NC(=O)[C@H](Cc1ccccc1)NC(=O)CN)C(=O)N[C@@H](Cc1c[nH]c3ccccc13)C(=O)N[C@@H](Cc1ccc(O)cc1)C(=O)N[C@@H](C(C)C)C(=O)N2 [compound 38] (H-GFCWYVCVYRNGVRGCYRRCN-OH; disulfide 3-20, 7-16 (inferred); N-terminus and C-terminus assumed) | 0.07
7 | CC(C)[C@@H]1NC(=O)CNC(=O)[C@H](CC(N)=O)NC(=O)[C@H](CCCNC(=N)N)NC(=O)[C@H](Cc2ccc(O)cc2)NC(=O)[C@H](C(C)C)NC(=O)[C@@H]2CSSC[C@H](NC(=O)[C@H](Cc3c[nH]cn3)NC(=O)[C@H](CCCNC(=N)N)NC1=O)C(=O)N[C@@H](Cc1ccc(O)cc1)C(=O)N[C@@H](CCCNC(=N)N)C(=O)N[C@@H](CCCNC(=N)N)C(=O)N[C@H](C(=O)N[C@@H](CC(N)=O)C(=O)O)CSSC[C@H](NC(=O)[C@H](Cc1ccccc1)NC(=O)CN)C(=O)N[C@@H](Cc1c[nH]c3ccccc13)C(=O)N[C@@H](Cc1ccc(O)cc1)C(=O)N[C@@H](C(C)C)C(=O)N2 [compound 39] (H-GFCWYVCVYRNGVRHCYRRCN-OH; disulfide 3-20, 7-16 (inferred); N-terminus and C-terminus assumed) | 0.02
8 | CC(C)[C@@H]1NC(=O)CNC(=O)[C@H](CC(N)=O)NC(=O)[C@H](CCCNC(=N)N)NC(=O)[C@H](Cc2ccc(O)cc2)NC(=O)[C@H](C(C)C)NC(=O)[C@@H]2CSSC[C@H](NC(=O)[C@H](CC(N)=O)NC(=O)[C@H](CCCNC(=N)N)NC1=O)C(=O)N[C@@H](Cc1ccc(O)cc1)C(=O)N[C@@H](CCCNC(=N)N)C(=O)N[C@@H](CCCNC(=N)N)C(=O)N[C@H](C(=O)N[C@@H](CC(N)=O)C(=O)O)CSSC[C@H](NC(=O)[C@H](Cc1ccccc1)NC(=O)CN)C(=O)N[C@@H](Cc1c[nH]c3ccccc13)C(=O)N[C@@H](Cc1ccc(O)cc1)C(=O)N[C@@H](C(C)C)C(=O)N2 [compound 41] (H-GFCWYVCVYRNGVRNCYRRCN-OH; disulfide 3-20, 7-16 (inferred); N-terminus and C-terminus assumed) | 0.03
9 | CC(C)[C@@H]1NC(=O)CNC(=O)[C@H](CC(N)=O)NC(=O)[C@H](CCCNC(=N)N)NC(=O)[C@H](Cc2ccc(O)cc2)NC(=O)[C@H](C(C)C)NC(=O)[C@@H]2CSSC[C@H](NC(=O)[C@H](CCC(N)=O)NC(=O)[C@H](CCCNC(=N)N)NC1=O)C(=O)N[C@@H](Cc1ccc(O)cc1)C(=O)N[C@@H](CCCNC(=N)N)C(=O)N[C@@H](CCCNC(=N)N)C(=O)N[C@H](C(=O)N[C@@H](CC(N)=O)C(=O)O)CSSC[C@H](NC(=O)[C@H](Cc1ccccc1)NC(=O)CN)C(=O)N[C@@H](Cc1c[nH]c3ccccc13)C(=O)N[C@@H](Cc1ccc(O)cc1)C(=O)N[C@@H](C(C)C)C(=O)N2 [compound 42] (H-GFCWYVCVYRNGVRQCYRRCN-OH; disulfide 3-20, 7-16 (inferred); N-terminus and C-terminus assumed) | 0.04
